Source: patent US6337317B1, “Antimicrobial peptides and methods of use thereof” (priority 2000, dated 2002)
Where a SMILES comes first, the peptide text is derived from it.

How the values were obtained:
Human Red Blood Cells = assay: Hemolytic assay; format: cell-based; conditions: red blood cells
Protocol: The toxicity of invention peptides can be assessed using a hemolytic assay in which the ability of the peptides to lyse human red blood cells is assessed (Zhang et al. (1999) Biochemistry 38:8102-8111; and Examples section).
Hemolytic activity of invention peptides was tested against human red blood cells. Freshly collected human blood treated with heparin was centrifuged to remove the buffy coat, and the erythrocytes thereby obtained were washed three times in saline (0.85% NaCl). Serial dilutions of the peptides in saline were prepared in round-bottomed microtiter plates using total volumes of 100 μl. Red blood cells were diluted with saline to 1/25 of a packed cell volume, and 50 μl of cells were added to each well. Plates, while rocking, were incubated at 37° C., and the concentration of the peptide required for lysis after 4 h was taken as the minimal hemolytic concentration.

[1] = system: E. coli 0111:B4 LPS induced production of TNF-α in RAW macrophages; assay: Reduction of LPS-induced TNF-α in RAW 264.7 macrophages (ELISA); format: cell-based, murine; conditions: for Inhibition of TNF-α (%): peptide 20 μg/ml, LPS 100 ng/ml, RAW 264.7, 6 hours
Protocol: (§1) The ability of invention peptides to reduce LPS-induced tumor necrosis factor (TNF) production was tested in an in vitro assay. The murine macrophage cell line RAW 264.7 was obtained from American Type Culture Collection (Manassas, Va.) and grown in DMEM medium supplemented with 10% fetal calf serum. The cells were plated at a density of 10^6 cells/well in 24 well plates, incubated overnight, then washed with fresh medium. E. coli 0111 :B4 (100 ng/ml) was added at time 0 to RAW macrophages. Invention peptides […]/m were added at time 0, 30 and 60 minutes and the cells were stimulated for 6 hours. Levels of TNF and interleukin-6 (IL-6) were measured after 6 hours.

[2] = system: E. coli 0111:B4 LPS induced production of IL-6 in RAW macrophages; assay: Reduction of LPS-induced IL-6 in RAW 264.7 macrophages (ELISA); format: cell-based, murine; conditions: for Inhibition of IL-6 (%): peptide 20 μg/ml, LPS 100 ng/ml, RAW 264.7, 6 hours
Protocol: as §1

P. aeruginosa M2 = assay: P. aeruginosa infection in neutropenic mouse model; format: in vivo; conditions: neutropenic CD-1 mice; for Mean Time to Death: 200 μg peptide intraperitoneally 30 min after infection; for Survival (%), P. aeruginosa infection: 200 μg peptide intraperitoneally, groups of 5 mice, assessed 24 to 72 hours
Protocol: Invention peptides were assayed for their ability to protect against P. aeruginosa infection in a neutropenic mouse mode. Female CD-1 mice, made neutropenic by three injections of cyclophosphamide (see Gough et al., (1996) Infect. Immun. 64:4922-4927) were injected intraperitoneally with a 100% lethal dose of P. aeruginosa M2 (approximately 200 organisms). Thirty minutes later, mice were injected intraperitoneally with invention peptides (200 μg/100 μl) Survival was assessed 24 to 72 hours later.

[3] = LPS-induced endotoxemia in galactosamine-sensitized mice; format: in vivo; conditions: 200 μg peptide intraperitoneally, groups of 10 mice, up to 24 h
Protocol: Bacterial endotoxin (LPS) is highly toxic and can cause high mortality in both humans and animals when released during Gram-negative bacterial infection. Galactosamine-treated mice exposed to moderate does of endotoxin typically die from endotoxic shock within 17 hours following exposure. Invention peptides can be tested for their ability to protect mice against endotoxin-induced death (see Examples section). The anti-endotoxic activity of invention peptides also can be tested in an in vitro assay using a macrophage cell line (Gough et al. (1996) Infect. Immun. 64:4922-4927; and Examples section).
The ability of invention peptides to protect against LPS-induced endotoxemia was assessed in vivo. Mice (8-10 weeks old) were injected intraperitoneally with […] D-galactosamine (Dgal) to sensitize them to LPS according to the method of Galanos (Galanos et al. (1979) Proc. Natl. Acad. Sci., USA, 76:5939-5943). Endotoxic shock was induces by intraperitoneal injections of 3 μg/mL E. coli 111 :B4 LPS in phosphate-buffered saline (PBS). Invention peptides (200 μg/100 μl sterile water) were injected intraperitoneally at a separate site within 10 min of LPS injection, and survival was monitored up to 24 h following injection.

[4] = Dansyl polymyxin B displacement assay (binding affinity for LPS); parameters: species or system Escherichia coli; conditions: for Imax: maximal displacement, 100% = that observed with polymyxin B; for IC50: peptide concentration reducing bound dansyl polymyxin B (10 μM) by 50% of maximal displacement, read-out: I50
Protocol: To determine whether invention peptides are able to interact with the LPS of Gram-negative bacterial outer membrane, the binding affinity of peptide for LPS was determined using a dansyl polymyxin B displacement assay (Moore et al. (1986) Antimicrobial Agents Chemother. 29:496-500). The assay uses dansyl polymyxin, a cationic probe that is highly fluorescent only when bound and LPS isolated from E. coli. UB1005. […] Maximal displacement of LPS was expressed as a percentage where 100% displacement of dansyl polymyxin B was taken as that observed with polymyxin B.

[5] = system: intact cells of E. coli UB1005; assay: NPN uptake assay, outer membrane permeabilization; format: cell-based, Escherichia coli; conditions: peptide concentration leading to 50% of maximal increase in NPN uptake
Protocol: The outer membrane permeabilization activity of invention peptides was determined by the 1-N-phenylnapthylamine (NPN) uptake assay of Loh et al. ((1984) Antimicor. Agents Chemother. 26:546-551), using intact cells of E. coli UB1005.
(§2) The cytoplasmic membrane depolarization activity of the peptides was determined (Wu and Hancock (1999) J. Biol. Chem. 274:29-35) using the membrane potential sensitive dye 3,3-dipropylthiacarbocyanine diSC35 (28) and E. coli DC2. Bacterial cells in mid-log phase were centrifuged, washed in 5 mM HEPES, pH 7.8, and resuspended in the same buffer to an OD600 of 0.05. A stock solution of diSC35 was added to a final concentration of 0.4 μM and quenching was allowed to occur at room temperature for 20-30 min. Then KCl was added to the cell suspension to a final concentration of 100 mM to equilibrate the cytoplasmic and external K^+ concentrations. A 2-mL cell suspension was placed in a 1 cm cuvette and the desired concentration of tested peptide was added. Changes in fluorescence due to the disruption of the membrane potential in the cytoplasmic membrane were continuously recorded using a Perkin-Elmer model 650-10S spectrofluorimeter at an excitation wavelength of 622 nm and an emission wavelength of 670 nm. The concentration of peptide leading to a 50% of maximal increase in NPN uptake was recorded as the P50.
Therefore, an increase in fluorescence in the presence of a peptide indicates the ability of peptide to permeabilize the bacterial outer membrane.

E. coli DC2 = assay: Cytoplasmic membrane depolarization, diSC35 assay; format: cell-based, Escherichia coli; conditions: 0.25 μg/ml (1×MIC)
Protocol: The arrowhead indicates the time at which 0.25 μg/ml peptide was added. PV5: SEQ ID NO:11; PV7: SEQ ID NO:4; and PV8: SEQ ID NO:3.
as §2

Compound	hemolytic activity (Human Red Blood Cells)	Inhibition of TNF-α (%) [1]	Inhibition of IL-6 (%) [2]	Mean Time to Death (P. aeruginosa M2)	Survival (%), P. aeruginosa infection (P. aeruginosa M2)	Survival (%), LPS-Endotoxemia [3]	Imax [4]	IC50 [4]	P50 [5]	inhibition of TNF-α production ([1]; 20 μg/ml)	inhibition of IL-6 production ([2]; 20 μg/ml)	diSC35 dye release from cells (E. coli DC2)
CC(C)[C@@H]1NC(=O)[C@H](CCCNC(=N)N)NC(=O)[C@H](Cc2ccccc2)NC(=O)[C@@H](NC(=O)[C@H](Cc2c[nH]c3ccccc23)NC(=O)[C@H](CCCNC(=N)N)NC(=O)[C@@H](N)Cc2ccccc2)CSSC[C@@H](C(=O)N[C@@H](CCCNC(=N)N)C(N)=O)NC(=O)[C@H](CCCCN)NC(=O)[C@H](Cc2ccc(O)cc2)NC(=O)[C@H](CCCNC(=N)N)NC(=O)[C@@H]2CSSC[C@H](NC1=O)C(=O)N[C@@H](Cc1ccc(O)cc1)C(=O)N[C@@H](CCCCN)C(=O)NCC(=O)N[C@@H](CCCNC(=N)N)C(=O)N2 [SEQ ID NO:3, FRWCFRVCYKGRCRYKCR] (HELM PEPTIDE1{F.R.W.C.F.R.V.C.Y.K.G.R.C.R.Y.K.C.R.[am]}$PEPTIDE1,PEPTIDE1,4:R3-17:R3|PEPTIDE1,PEPTIDE1,8:R3-13:R3$$$V2.0)	show hemolytic activity	55 ± 5%	70 ± 6%	>72 h	60%	20%	93%	4.9 µM	3.9 µg/mL	–	–	–
CC(C)[C@@H]1NC(=O)[C@H](CCCNC(=N)N)NC(=O)[C@H](Cc2ccccc2)NC(=O)[C@@H](NC(=O)[C@H](Cc2c[nH]c3ccccc23)NC(=O)[C@H](CCCNC(=N)N)NC(=O)[C@@H](N)CCCNC(=N)N)CSSC[C@@H](C(=O)N[C@@H](CCCNC(=N)N)C(N)=O)NC(=O)[C@H](CCCCN)NC(=O)[C@H](Cc2ccc(O)cc2)NC(=O)[C@H](CCCNC(=N)N)NC(=O)[C@@H]2CSSC[C@H](NC1=O)C(=O)N[C@@H](Cc1ccc(O)cc1)C(=O)N[C@@H](CCCCN)C(=O)NCC(=O)N[C@@H](Cc1ccccc1)C(=O)N2 [SEQ ID NO:4, RRWCFRVCYKGFCRYKCR] (HELM PEPTIDE1{R.R.W.C.F.R.V.C.Y.K.G.F.C.R.Y.K.C.R.[am]}$PEPTIDE1,PEPTIDE1,4:R3-17:R3|PEPTIDE1,PEPTIDE1,8:R3-13:R3$$$V2.0)	show hemolytic activity	61 ± 5%	77 ± 6%	61 h	40%	40%	76%	5.7 µM	4.1 µg/mL	–	–	–
CC(C)[C@@H]1NC(=O)[C@H](CCCNC(=N)N)NC(=O)[C@H](Cc2ccccc2)NC(=O)[C@@H](NC(=O)[C@H](Cc2c[nH]c3ccccc23)NC(=O)[C@H](CCCNC(=N)N)NC(=O)[C@@H](N)CCCNC(=N)N)CSSC[C@@H](C(=O)N[C@@H](CCCNC(=N)N)C(N)=O)NC(=O)[C@H](CCCCN)NC(=O)[C@H](CCCNC(=N)N)NC(=O)[C@H](Cc2ccc(O)cc2)NC(=O)[C@@H]2CSSC[C@H](NC1=O)C(=O)N[C@@H](Cc1ccc(O)cc1)C(=O)N[C@@H](CCCNC(=N)N)C(=O)NCC(=O)N[C@@H](CCCNC(=N)N)C(=O)N[C@@H](Cc1ccccc1)C(=O)N2 [SEQ ID NO:11, RRWCFRVCYRGRFCYRKCR] (HELM PEPTIDE1{R.R.W.C.F.R.V.C.Y.R.G.R.F.C.Y.R.K.C.R.[am]}$PEPTIDE1,PEPTIDE1,4:R3-18:R3|PEPTIDE1,PEPTIDE1,8:R3-14:R3$$$V2.0)	show hemolytic activity	90 ± 6%	91 ± 4%	57 h	40%	50%	87%	3 µM	3.7 µg/mL	best inhibitor	best inhibitor	unable to cause a significant level of dye release
Polymyxin B [reference compound]	–	–	–	–	–	–	100%	5.6 µM	–	–	–	–
